In patent publication US20070219214A1, “Dual NK2/NK3-antagonists, pharmaceutical compositions comprising them, and processes for their preparation” (Solvay pharmaceuticals GmbH, priority 2006, published 2007):
Read-outs that look alike come from different tables or passages of the source.

Columns and labels:
human NK2-receptor [1] = target: T1, human NK2-receptor (Homo sapiens, UniProt P21452); assay: Functional cellular test, Ca2+ measurements using FLIPR for NK2 activity; conditions: for pA2 data for NK2: CHO cells, human NK2, FLIPR Ca2+, agonist NKA 10^-7 M;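 as to all read-outs here: CHO cells stably expressing the human receptor, loaded with a calcium dye, antagonist inhibition of ligand-evoked intracellular calcium rise read as peak fluorescence change on FLIPR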
T1 sequence (P21452 1-398): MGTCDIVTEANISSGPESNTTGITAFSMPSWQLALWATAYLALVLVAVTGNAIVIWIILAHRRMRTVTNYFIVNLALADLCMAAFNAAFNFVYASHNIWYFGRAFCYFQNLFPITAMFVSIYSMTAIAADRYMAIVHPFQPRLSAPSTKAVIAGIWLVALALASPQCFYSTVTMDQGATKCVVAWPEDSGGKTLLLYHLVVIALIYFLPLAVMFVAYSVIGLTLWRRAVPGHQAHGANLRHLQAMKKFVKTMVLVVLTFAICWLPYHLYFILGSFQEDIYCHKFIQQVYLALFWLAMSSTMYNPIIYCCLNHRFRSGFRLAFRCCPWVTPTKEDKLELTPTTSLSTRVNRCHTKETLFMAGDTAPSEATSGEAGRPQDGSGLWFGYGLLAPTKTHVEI
Method: Functional Cellular Tests of the NK1-, NK2- and NK3-Antagonism
Functional cellular tests of the antagonistic effect of the compounds of the present invention on the human tachykinin receptors were performed in CHO cells expressing the recombinant human NK1, NK2 or NK3-receptor. In these tests the inhibition of ligand-induced increase in mobilization of intracellular calcium and inhibition of ligand-induced phosphorylation of mitogen activated protein kinase (MAPK) were determined, which can be used as a measure of functional activity of tachykinin-antagonists. Additionally, the antagonistic properties of reference compounds on the different tachykinin receptors were characterized for comparison.
The effects of test compounds were assessed using Chinese hamster ovary (CHO) fibroblast cells, stably expressing cloned human NK1, NK2 or NK3-receptors. The NK receptor is coupled to Gq. The activation of the Gq protein by ligand binding to the receptor leads to a mobilization of intracellular calcium and phosphorylation of MAPK. Both systems were used to determine functional effects of the test compounds.
Ca^2+ Measurements Using FLIPR for NK1 and NK2 Activity
For tests, cells were seeded 24 hours prior to the experiment into black 96-well microplates. The cell density was 2.2×10^4 cells/well. All steps were done under sterile conditions. In order to observe changes in intracellular calcium levels, cells were loaded with a calcium-sensitive dye. This dye (FLUO-4, from Molecular Probes) excites at 488 nm, and emits in the 500 nm to 560 nm range, only if a complex with calcium is formed. For the dye loading the growth-medium was aspirated out of the well without disturbing the confluent cell layer and 100 μl loading medium (HBSS, 4 μM FLUO-4, 0.005% (w/v) pluronic acid, 2.5 mM probenecid, 20 mM HEPES, pH 7.4) was dispensed into each well using an automatic pipettor system (Multidrop, Labsystems). Pluronic acid was added to increase dye solubility and dye uptake into the cells, whereas probenecid, an anion exchange inhibitor, was added to the loading medium to increase dye retention in the cells. The cells were incubated in a 5% CO2 incubator at 37° C. for 40 minutes. After dye loading, the cells were washed three times with wash-buffer (HBSS, 2.5 mM probenecid, 20 mM HEPES, pH 7.4) to reduce basal fluorescence. In the last washing step the buffer was aspirated and replaced with 100 μl washing buffer. […] The FLIPR setup parameters were set to 0.4 sec exposure length, filter 1, 50 μl fluid addition, pipettor height at 125 μl, dispense speed 40 μl/sec without mixing. Maximal fluorescence changes were obtained using the statistic function of the FLIPR software, and data plotted using GraphPad Prism 4. All points were expressed as a percentage inhibition of the control agonist. IC50 values were determined using sigmoidal dose-response curve fitting. Antagonist potencies (pA2) values were calculated using equation: pA2=−log(IC50/(1+[L]/EC50)),

NK1-receptor = target: T2, NK1-receptor (Cavia porcellus, UniProt P30547); assay: NK1-receptor-antagonistic effectiveness in vivo, NKA-induced early hypotension in anaesthetised guinea pigs; conditions: guinea pig; for ED50 iv after 1 min (cumulative), NK1 (early hypotension) / ED50 AUC1-180 min oral, NK1 (early hypotension): NKA 200 pmol/animal i.v.; for ED50 iv after 1 min (cumulative), NK1 (early hypotension): intravenous administration
T2 construct: from tissue; host or cells: whole animal (Pirbright-White guinea pigs), in vivo
T2 sequence (P30547 whole entry): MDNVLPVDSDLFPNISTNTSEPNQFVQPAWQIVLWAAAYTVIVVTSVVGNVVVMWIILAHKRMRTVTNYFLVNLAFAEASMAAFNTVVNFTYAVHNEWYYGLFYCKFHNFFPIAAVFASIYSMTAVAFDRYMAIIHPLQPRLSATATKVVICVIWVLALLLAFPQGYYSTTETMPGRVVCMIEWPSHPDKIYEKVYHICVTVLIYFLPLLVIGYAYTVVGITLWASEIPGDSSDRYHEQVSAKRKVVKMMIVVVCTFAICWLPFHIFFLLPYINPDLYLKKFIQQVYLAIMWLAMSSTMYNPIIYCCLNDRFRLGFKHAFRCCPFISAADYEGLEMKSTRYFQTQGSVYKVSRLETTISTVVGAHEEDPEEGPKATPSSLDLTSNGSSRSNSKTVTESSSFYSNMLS
Text: 10. Determination of the NK1- and NK2-Receptor-Antagonistic Effectiveness of the Test Substances In Vivo
The NK1- and NK2-antagonistic activities of the test substances were investigated in anaesthetised guinea pigs in each case after intravenous (=i.v.) and oral (=p.o.) administration in vivo. With the present test model it is possible to detect both NK2-antagonistic effects in three different organ systems (respiratory tracts, colon and circulation) and NK1-antagonistic effects (rapid drop in blood pressure) in an animal simultaneously.
Pirbright-White guinea pigs of a body weight of 500-700 g were anaesthetised with ketamine/xylazine (67/13 mg/kg subcutaneously, initial dose, further doses administered as required). The animals were provided with an intravenous catheter in order to administer the substance and an intra-arterial catheter to measure the blood pressure. The animals were artificially ventilated via a tracheal cannula and the respiratory pressure was recorded by means of a pressure transducer. A balloon was introduced into the distal colon of the animals for manometric recording of colon motility by means of a pressure transducer. Blood pressure, heart rate, respiratory pressure and colonic pressure were measured continuously for each animal and plotted on a recorder and by means of a digital data-processing system. […] The second phase of delayed hypotension (=phase of maximum hypotension after 2-5 min.) on the other hand is mediated via NK2-receptors, since they can be blocked by specific NK2-receptor antagonists.
These ED50 values obtained from cumulative dose effect curves are plotted in Table 13.

human NK2-receptor [2] = target: T1, human NK2-receptor; assay: Binding potency of the test substances to NK2-receptors in vitro ([3H]-SR 48968 displacement); parameters: expressed in transfected cells; host or cells: CHO cells (membrane preparation); conditions: human NK2-receptor in CHO cell membranes, [3H]-SR 48968 (saredutant), average of at least three measurements; for Ki: read-out: pKi, binding potency to NK2-receptors (converted)
Outline: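 Membranes from CHO cells stably expressing the receptor were incubated with [3H]-saredutant plus test compound, then filtered and counted by liquid scintillation. Nonspecific binding defined with 0.1 μmol/l unlabeled saredutant. IC50 from displacement converted to Ki via Cheng-Prusoff and reported as pKi, averaged over measurements.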

human NK3 receptor = target: T3, human NK3 receptor (Homo sapiens, UniProt P29371); assay: Binding potency of the test substances to NK3-receptors in vitro ([3H]-SR 142801 displacement); parameters: expressed in transfected cells; host or cells: CHO cells (membrane preparation); conditions: human NK3-receptor in CHO cell membranes, [3H]-SR 142801 (osanetant), average of at least three measurements; for Ki: read-out: pKi, binding potency to NK3-receptors (converted)
T3 sequence (P29371 1-465): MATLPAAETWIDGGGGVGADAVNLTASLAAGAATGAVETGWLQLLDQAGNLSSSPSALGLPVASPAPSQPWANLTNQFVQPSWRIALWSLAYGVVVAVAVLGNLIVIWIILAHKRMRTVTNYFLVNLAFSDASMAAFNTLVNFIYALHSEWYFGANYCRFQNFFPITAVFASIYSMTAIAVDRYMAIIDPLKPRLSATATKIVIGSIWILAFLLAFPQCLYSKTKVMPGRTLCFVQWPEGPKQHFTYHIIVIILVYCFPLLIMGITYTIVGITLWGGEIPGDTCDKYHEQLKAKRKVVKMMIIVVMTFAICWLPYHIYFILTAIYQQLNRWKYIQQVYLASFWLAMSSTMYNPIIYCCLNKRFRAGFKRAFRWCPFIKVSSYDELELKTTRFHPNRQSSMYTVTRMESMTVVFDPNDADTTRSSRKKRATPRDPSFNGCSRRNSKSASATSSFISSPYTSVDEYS
Outline: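 [3H]-osanetant displacement on membranes from CHO cells stably expressing the human receptor, with bound ligand separated by filtration and counted by scintillation. Nonspecific binding defined with 1 μmol/l unlabeled osanetant. IC50 converted to Ki by Cheng-Prusoff and reported as pKi, averaged over measurements.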

[3] = iv, read-out: ED50 iv after 1 min (cumulative), NK1 (early hypotension)

| SMILES | pA2 data for NK2 (human NK2-receptor [1]) | ED50 iv after 1 min (cumulative), NK1 (early hypotension) (NK1-receptor) [µmol/kg] | pKi, binding potency to NK2-receptors (human NK2-receptor [2]) | pKi, binding potency to NK3-receptors (human NK3 receptor) | Kb (human NK2-receptor [1]) [nM] | Ki (human NK3 receptor) [nM] | ED50 (NK1-receptor; [3]) [µmol/kg] | ED50 (NK1-receptor; read-out: ED50 AUC1-180 min oral, NK1 (early hypotension)) [µmol/kg] | Ki (human NK2-receptor [2]) [nM] | ED50 AUC1-180 min oral, NK1 (early hypotension) (NK1-receptor; oral administration) [µmol/kg] | NK-1-receptor-antagonistic activity on the early hypotension, in words (NK1-receptor; cumulative administration i.v., 1 min after administration) | oral activity as NK1 receptor antagonist, in words (NK1-receptor; oral administration) |
| --- | --- | --- | --- | --- | --- | --- | --- | --- | --- | --- | --- | --- |
| CN(C)C(=O)C1(N2CCCCC2)CCN(CC[C@H](CN(C)C(=O)c2cc(F)ccc2F)c2ccc(Cl)c(Cl)c2)CC1 [compound 15] | 8.3 | >1.462 | 9.2 |  |  |  |  |  |  |  |  |  |
| CN(C)C(=O)C1(N2CCCCC2)CCN(CC[C@H](CN(C)C(=O)C2CCCCC2)c2ccc(Cl)c(Cl)c2)CC1 [compound 3] | 8.7 | >1.462 | 8.8 | 8.2 |  |  |  |  |  |  |  |  |
| CN(C)C(=O)C1(N2CCCCC2)CCN(CC[C@H](CN(C)C(=O)c2ccccc2)c2ccc(Cl)c(Cl)c2)CC1 [compound 1] |  |  |  |  | 0.2 | 2.51 | > 0.46 | > 3.2 | 0.158 |  |  |  |
| CN(C)C(=O)C1(N2CCCCC2)CCN(CC[C@H](CN(C)C(=O)c2ccc(F)cc2)c2ccc(Cl)c(Cl)c2)CC1 [compound 4] | 8.6 | >1.462 | 9.6 | 8.2 |  |  |  |  |  | >10 |  |  |
| CN(C)C(=O)C1(N2CCCCC2)CCN(CC[C@H](CN(C)C(=O)c2ccc(F)cc2F)c2ccc(Cl)c(Cl)c2)CC1 [compound 13] | 8.3 |  | 9.0 | 7.4 |  |  |  |  |  |  |  |  |
| CN(C)C(=O)C1(N2CCCCC2)CCN(CCC(CN(C)C(=O)c2ccc(Cl)nc2)c2ccc(Cl)c(Cl)c2)CC1 (stereo not drawn) [compound 18] |  |  |  |  | 3.16 | 5.01 | > 1.46 |  | 1.26 |  |  |  |
| CN(C)C(=O)C1(N2CCCCC2)CCN(CCC(CN(C)C(=O)c2cccnc2)c2ccc(Cl)c(Cl)c2)CC1 (stereo not drawn) [compound 19] |  |  |  |  | 0.501 | 31.6 | > 1.46 |  | 3.16 |  |  |  |
| CN(C)C(=O)C1(N2CCCCC2)CCN(CC[C@H](CN(C)C(=O)c2cc(C#N)c3ccccc3c2)c2ccc(Cl)c(Cl)c2)CC1 [compound 11] | 8.4 | 0.433 | 8.7 | 7.9 |  |  |  |  |  | 23.027 | marked NK-1-receptor-antagonistic activity | active as NK1 receptor antagonists |
| CN(C)C(=O)C1(N2CCCCC2)CCN(CC[C@H](CN(C)C(=O)c2ccc(F)c(F)c2)c2ccc(Cl)c(Cl)c2)CC1 [compound 14] | 8.2 | >1.462 | 9.1 |  |  |  |  |  |  |  |  |  |
| CN(C)C(=O)C1(N2CCCCC2)CCN(CC[C@H](CN(C)C(=O)c2ccc(O)cc2)c2ccc(Cl)c(Cl)c2)CC1 [compound 6, 1′-{(3S)-3-(3,4-dichlorophenyl)-4-[(4-hydroxybenzoyl)-(methyl)amino]butyl}-N,N-dimethyl-1,4′-bipiperidine-4′-carboxamide] |  |  |  |  | 1.58 | 2 | > 1.46 |  | 0.631 |  |  |  |
